Data from patent US6953779B2, “Melanocortin receptor antagonists and modulations of melanocortin receptor activity” (The Regents of the University of California, priority 1998, dated 2005).

Tests used:
[1] = tested on: dispersion of melanin initiated by norepinephrine, serotonin, vasotocin, PACAP-27; assay: Selectivity: melanin dispersion initiated by other ligands in melanophores; type: cell-based, Xenopus laevis; conditions: 30 nM
Method: The selectivity of the MC receptor antagonism by dynorphin A(6-12) analogs was examined.
Melanophore responses were determined by measuring absorbance (OD) ratios taken through a monolayer of cells using a FisherBiotec BT2000 Microplate Reader (Pittsburgh, Pa.). Absorbance was measured before and after a 90 minute exposure to test peptides and then expressed as percent of initial absorbance. (Measurements were taken after 60 minutes pretreatment with 10 nM melatonin to initiate readings from an aggregated state.)

MCR-4 = MCR-4 (Homo sapiens, UniProt P32245); assay: cAMP concentration-response to α-MSH in HEK-293 cells transfected with human MCR-4; type: cell-based; design: expressed in transfected cells; conditions: presence and absence of 30 μM antagonist
Method: A second method for studying MCR antagonists is to use mammalian cells stably transfected with the cDNA for various human MCR.
Human embryonic kidney (HEK-293) cells were maintained in modified Eagle's medium (DMEM/H-16/F-12) with 10% fetal calf serum (FBS), 100 U/mL penicillin “G” and 100 μg/mL streptomycin (P/S; Gemini). Transfections were performed using cDNA containing the human MCR-1 receptor (pcDNAI/NEO.hMC1), or MCR-4 (pcCMV.hMC4) receptors. HEK-293 cells are stably transformed with the human MCR-1 and MCR-4 receptors by electroporating 20 μg of plasmid cDNA using a Gene Pulser transfection apparatus (450 V, 960 μF; BioRad, Hercules, Calif.). After six days, stable MC clonal cell lines were selected by addition of 400 μg/ml G-418 to the medium and kept frozen for future use.
(§1) Peptide concentration-response measurements are made in HEK-293 cells by quantifying cAMP levels using a [8-^3H]-CAMP kit from Amersham. Briefly, cells transfected with MC receptors, plated to confluency in 96-well tissue culture plates, are rinsed for 1 hr with 70% (vol/vol) L-15 medium containing 0.5% bovine serum albumin. […] Cellular debris was separated from extracted samples by centrifugation, 400 μL aliquots of the supernatant lyophilized, and total cAMP content quantified by isotope counting.
(§2) HEK-293 cells were maintained and transfected As described in Example 2. […]

MCR-1 = MCR-1 (Homo sapiens, UniProt Q01726); assay: cAMP concentration-response to α-MSH in HEK-293 cells transfected with human MCR-1; type: cell-based; design: expressed in transfected cells; conditions: presence and absence of 30 μM antagonist
Text: (§3) A second method for studying MCR antagonists is to use mammalian cells stably transfected with the cDNA for various human MCR. These transfected cells manifest an increased CAMP response to α-MSH stimulation and agents which antagonize MCR will block this stimulating effect of α-MSH. The inhibitory effects of antagonists can be quantified by the change in the effective concentration (EC50) of α-MSH i the presence of antagonist, or by computation of Ki value by a Schild regression analysis.
Human embryonic kidney (HEK-293) cells were maintained in modified Eagle's medium (DMEM/H-16/F-12) with 10% fetal calf serum (FBS), 100 U/mL penicillin “G” and 100 μg/mL streptomycin (P/S; Gemini). Transfections were performed using cDNA containing the human MCR-1 receptor (pcDNAI/NEO.hMC1), or MCR-4 (pcCMV.hMC4) receptors. HEK-293 cells are stably transformed with the human MCR-1 and MCR-4 receptors by electroporating 20 μg of plasmid cDNA using a Gene Pulser transfection apparatus (450 V, 960 μF; BioRad, Hercules, Calif.). […]
Peptide concentration-response measurements are made in HEK-293 cells by quantifying cAMP levels using a [8-^3H]-CAMP kit from Amersham. […] Cellular debris was separated from extracted samples by centrifugation, 400 μL aliquots of the supernatant lyophilized, and total cAMP content quantified by isotope counting. […]

MCR-3 = MCR-3 (Homo sapiens, UniProt P41968); assay: cAMP concentration-response to α-MSH in HEK-293 cells transfected with human MCR-3; type: cell-based; design: expressed in transfected cells; conditions: presence and absence of 30 μM antagonist
Text: as §3
Peptide concentration-response measurements are made in HEK-293 cells by quantifying cAMP levels using a [8-^3H]-CAMP kit from Amersham. Briefly, cells transfected with MC receptors, plated to confluency in 96-well tissue culture plates, are rinsed for 1 hr with 70% (vol/vol) L-15 medium containing 0.5% bovine serum albumin. After a 30 min exposure to test ligands, HEK-293 cells are rinsed twice with ice-cold 70% phosphate-buffered saline (0.07 g/L CaCl2, 0.07 g/L MgCl2.6H2O, 0.14 g/L KH2PO4, 1.51 g/L Na2HPO4.7H2O, 0.14 g/L KCl, 5.6 g/L NaCl, pH 7.4), and intracellular CAMP extracted with 1 mL of 60% (vol/vol) ethanol. Cellular debris was separated from extracted samples by centrifugation, 400 μL aliquots of the supernatant lyophilized, and total cAMP content quantified by isotope counting.
as §2

[2] = biological target: T1, ACTH (MCR-2) receptor endogenous to murine Y1 adrenocortical cells (Mus musculus, UniProt Q64326); assay: cAMP concentration-response to ACTH-(1-24) in Y1 cells; type: cell-based; conditions: Y1 cells; 30 μM
T1 construct: the ACTH (MCR-2) receptor endogenous to murine Y1 adrenocortical cells; endogenous in cells; host or cells: murine Y1 adrenocortical cells
Method: as §1
Concentration response measurements were made also as described in Example 2, but in Xenopus fibroblasts, COS-7, HEK-293, and Y1 cells.

T1 sequence (Q64326 whole entry): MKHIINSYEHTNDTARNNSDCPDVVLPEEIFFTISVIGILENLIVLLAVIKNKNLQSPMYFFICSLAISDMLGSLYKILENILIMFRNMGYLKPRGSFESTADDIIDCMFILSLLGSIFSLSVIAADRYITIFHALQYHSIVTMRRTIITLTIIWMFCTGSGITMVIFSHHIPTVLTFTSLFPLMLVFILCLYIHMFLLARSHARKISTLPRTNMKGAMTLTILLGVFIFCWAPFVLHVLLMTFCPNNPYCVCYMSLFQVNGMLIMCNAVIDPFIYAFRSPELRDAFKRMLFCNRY
T1 sequence (Q9D159 whole entry partner): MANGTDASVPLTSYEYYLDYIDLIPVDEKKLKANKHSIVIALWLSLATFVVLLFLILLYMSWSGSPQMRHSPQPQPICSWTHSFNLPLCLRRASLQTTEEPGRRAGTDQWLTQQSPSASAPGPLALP
Sequence of MCR-1 (Q01726 whole entry): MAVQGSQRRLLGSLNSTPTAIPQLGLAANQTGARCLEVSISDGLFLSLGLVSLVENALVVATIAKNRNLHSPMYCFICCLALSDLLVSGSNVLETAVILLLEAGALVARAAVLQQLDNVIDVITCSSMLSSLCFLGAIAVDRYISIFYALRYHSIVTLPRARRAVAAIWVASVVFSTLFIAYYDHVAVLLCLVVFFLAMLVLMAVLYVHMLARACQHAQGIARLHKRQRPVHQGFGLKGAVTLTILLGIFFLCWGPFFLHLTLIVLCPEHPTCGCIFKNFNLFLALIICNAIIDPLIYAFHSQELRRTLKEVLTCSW
Sequence of MCR-4 (P32245 whole entry): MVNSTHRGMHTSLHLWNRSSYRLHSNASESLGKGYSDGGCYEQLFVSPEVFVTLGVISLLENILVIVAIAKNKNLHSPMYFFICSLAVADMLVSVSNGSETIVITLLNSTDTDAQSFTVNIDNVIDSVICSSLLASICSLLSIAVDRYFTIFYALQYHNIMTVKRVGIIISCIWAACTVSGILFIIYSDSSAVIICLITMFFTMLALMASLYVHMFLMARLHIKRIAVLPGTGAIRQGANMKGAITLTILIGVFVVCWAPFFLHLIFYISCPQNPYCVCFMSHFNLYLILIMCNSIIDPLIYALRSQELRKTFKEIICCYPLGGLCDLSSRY
Sequence of MCR-3 (P41968 whole entry): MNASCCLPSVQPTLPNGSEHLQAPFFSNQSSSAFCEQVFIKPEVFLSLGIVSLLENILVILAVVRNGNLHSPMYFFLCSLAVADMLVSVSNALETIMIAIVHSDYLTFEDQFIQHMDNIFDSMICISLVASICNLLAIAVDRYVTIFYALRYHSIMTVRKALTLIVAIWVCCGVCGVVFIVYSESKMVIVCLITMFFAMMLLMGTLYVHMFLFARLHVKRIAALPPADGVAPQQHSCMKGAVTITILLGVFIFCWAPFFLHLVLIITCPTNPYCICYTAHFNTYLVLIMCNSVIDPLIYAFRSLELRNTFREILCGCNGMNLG

SMILES	effect on concentration-response curves evoked with norepinephrine, serotonin, PACAP-27, and Arg8-vasotocin [1]	Dose ratio from α-MSH dose-response curves (MCR-4)	Dose ratio from α-MSH dose-response curves (MCR-1)	Dose ratio from α-MSH dose-response curves (MCR-3)	shift of the concentration-response curve of ACTH-(1-24) to the right [2]
CSCC[C@@H]1NC(=O)[C@H](C)NC(=O)[C@H]([C@@H](C)O)NC(=O)CNC(=O)[C@H](CC(C)C)NC(=O)[C@H](CCCCN)NC(=O)[C@H](CCCNC(=N)N)NC(=O)[C@@H]2CSSC[C@@H]3NC(=O)[C@@H]4CCCN4C(=O)[C@H](C(C)C)NC(=O)[C@H](CCC(N)=O)NC(=O)[C@H](CCC(N)=O)NC(=O)CNC(=O)[C@H](CC(C)C)NC(=O)[C@@H]4CSSC[C@H](NC(=O)[C@H]([C@@H](C)O)NC(=O)[C@H](C)NC(=O)[C@H](CSSC[C@@H](C(=O)N[C@@H](CO)C(=O)N[C@@H](CCCNC(=N)N)C(=O)N[C@H](C(N)=O)[C@@H](C)O)NC(=O)[C@@H]5CCCN5C(=O)[C@H](CC(N)=O)NC1=O)NC(=O)[C@@H]1CCCN1C(=O)[C@H](CC(=O)O)NC(=O)[C@H](CSSC[C@H](NC(=O)[C@H](CCCNC(=N)N)NC(=O)[C@H](CCCNC(=N)N)NC(=O)[C@H](CO)NC(=O)[C@@H](N)CO)C(=O)N[C@@H](C(C)C)C(=O)N[C@@H](CCCNC(=N)N)C(=O)N[C@@H](CC(C)C)C(=O)N[C@@H](Cc1c[nH]cn1)C(=O)N[C@@H](CCC(=O)O)C(=O)N[C@@H](CO)C(=O)N4)NC3=O)C(=O)N[C@@H](Cc1ccc(O)cc1)C(=O)N[C@H]1CSSC[C@H](NC(=O)[C@H](Cc3ccccc3)NC(=O)[C@H](C)NC(=O)[C@H](CC(N)=O)NC(=O)[C@H](Cc3ccccc3)NC(=O)[C@H](Cc3ccccc3)NC(=O)[C@H](CCCNC(=N)N)NC1=O)C(=O)N[C@@H](Cc1ccc(O)cc1)C(=O)N2 [ARP-(83-132)-NH2, SSRRCVRL HESCLGQQVPCCDPCATCYCRFFNAFCYCRKLGTAMNPCSRT]	no effect	–	–	–	–
CC[C@H](C)[C@H](NC(=O)[C@H](CCCNC(=N)N)NC(=O)[C@H](CCCNC(=N)N)NC(=O)[C@H](CC(C)C)NC(=O)[C@H](Cc1ccccc1)NC(=O)CNC(=O)CN)C(=O)N[C@@H](CCCNC(=N)N)C(=O)N1CCC[C@H]1C(=O)N[C@@H](CCCCN)C(=O)N[C@@H](CC(C)C)C(=O)N[C@@H](CCCCN)C(=O)O [dynorphin A(2-13)]	–	147±13	250±31	128±44	approximately 15 fold
